In PMC7726319, “Discovery of 5,5′-Methylenedi-2,3-Cresotic Acid as a Potent Inhibitor of the Chemotactic Activity of the HMGB1·CXCL12 Heterocomplex Using Virtual Screening and NMR Validation” (Frontiers in Chemistry, 2020) one finds Kd data, which are given here for 1 molecule.

The target in the assay is T1, HMGB1 (Mus musculus, UniProt P63158).
T1 construct: 6His-tagged form for MST
T1 sequence (P63158 2-215): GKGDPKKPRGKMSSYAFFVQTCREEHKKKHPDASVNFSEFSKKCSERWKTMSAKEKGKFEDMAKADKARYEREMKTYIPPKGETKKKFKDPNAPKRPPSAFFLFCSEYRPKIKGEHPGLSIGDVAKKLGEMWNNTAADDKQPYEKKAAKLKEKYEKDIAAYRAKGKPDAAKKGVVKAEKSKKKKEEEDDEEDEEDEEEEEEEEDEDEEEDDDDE
In words: 1H-15N HSQC NMR titration (CSP fit). It is filed as binding. To be noted: read-out: apparent Kd.

`O=C(/C=C/c1ccc(O)c(O)c1)O[C@H](Cc1ccc(O)c(O)c1)C(=O)O` [compound 6, rosmarinic acid]: the Kd was above 10 mM.
